This is an account of results in ChEMBL document CHEMBL1138147, “Respiratory syncytial virus fusion inhibitors. Part 3: Water-soluble benzimidazol-2-one derivatives with antiviral activity in vivo” (Bioorg Med Chem Lett, 2006).

The term EC50 denotes the concentration at which the effect is half-maximal. The CC50 is the concentration at which the toxic effect on the cells reaches its halfway point. Read a high CC50 as better tolerance by the cells.

Some results are limits rather than exact numbers.

The subject of data set [1] is Cotton rat. The data set is described as follows: Efficacy in cotton rat measured as reduction in log TCID50 of RSV per gram of lung at 0.2 mg/mL. In kind it is functional, Sigmodon.
The test system of data set [2] is Respiratory syncytial virus. The data set is described as follows: Antiviral activity against RSV Long strain in human Hep2 cells. In kind it is functional, organism-based. The note with it: HEp-2.
Data set [3] can be described thus: Therapeutic index (CC50/EC50) for RSV infected Hep2 cells. As to conditions: human, read-out: Ratio CC50/EC50. In kind it is cell-based, HEp-2.
Data set [4] concerns Cotton rat. Briefly: Efficacy in cotton rat measured as reduction in log TCID50 of RSV per gram of lung at 1.0 mg/mL. Format: functional, Sigmodon.
Another data set has as its system HEp-2. The data set is described as follows: Cytotoxicity against human Hep2 cells infected with RSV Long strain. In kind it is functional.
The test system of data set [5] is Cotton rat. Briefly: Efficacy in cotton rat measured as reduction in log TCID50 of RSV per gram of lung at 1.6 mg/mL. Format: functional, Sigmodon.
Data set [6] concerns Cotton rat. The data set is described as follows: Efficacy in cotton rat measured as reduction in log TCID50 of RSV per gram of lung at 2.0 mg/mL. Format: functional, Sigmodon.
Data set [7] deals with Cotton rat. Briefly: Efficacy in cotton rat measured as reduction in log TCID50 of RSV per gram of lung at 0.01 mg/mL. In kind it is functional, Sigmodon.
Data set [8] deals with Cotton rat. The data set is described as follows: Efficacy in cotton measured as reduction in log TCID50 of RSV per gram of lung rat at 0.05 mg/mL. In kind it is functional, Sigmodon.
For data set [9], the system named is Cotton rat. Briefly: Efficacy in cotton rat measured as reduction in log TCID50 of RSV per gram of lung at 0.67 mg/mL. In kind it is functional, Sigmodon.
For data set [10], the system named is Cotton rat. Briefly: Efficacy in cotton rat measured as reduction in log TCID50 of RSV per gram of lung at 0.5 mg/mL. Format: functional, Sigmodon.
The next data set has as its system Mus musculus. Briefly: Efficacy in BALB/c mouse measured as reduction in log TCID50 of RSV per gram of lung at 120 mg/kg, sc. In kind it is functional. The note with it: route subcutaneous.

Turning to `CC(C)CCn1c(Cn2c(=O)n(Cc3ccc(Cn4c(=O)ccn(CC(=O)N[C@@H](CC(=O)O)C(=O)O)c4=O)cc3)c3ccccc32)nc2ccccc21`, the Efficacy in the data set on Cotton rat [1] was found to be 3.22; in the data set on Cotton rat [4], 1.83. The same compound yielded a concentration for a half-maximal effect (EC50) in data set [2] of 8 nM. The selectivity ratio in data set [3] was > 13200. The CC50 in the data set on HEp-2 is > 106000 nM.
In turn, `CC(C)CCn1c(Cn2c(=O)n(Cc3ccccc3S(=O)(=O)O)c3ccccc32)nc2ccccc21` registered an Efficacy with Cotton rat [5] of 2.25. This compound came in with an EC50 in data set [2] of 7 nM. In addition, the selectivity ratio in [3] is > 2710. The CC50 in the data set with HEp-2 is > 19000 nM.
Turning to `CC(C)CCn1c(Cn2c(=O)n(Cc3ccc(P(=O)(O)O)cc3)c3ccccc32)nc2ccccc21`, the Efficacy is recorded as 2.1 in the data set on Cotton rat [6], 3.5 in the data set with Cotton rat [1], 4.4 with Cotton rat [7] and 4 in the data set on Cotton rat [8]. This compound came in with a half-maximal effective concentration (EC50) in [2] of 27 nM. The selectivity ratio in data set [3] was 3000. For the same compound, in the data set with HEp-2, the CC50 was > 175000 nM.
On to `O=C(O)c1ccc(Cn2c(=O)n(Cc3nc4ccccc4[nH]3)c3ccccc32)cc1`, for which the EC50 in [2] was determined as 14 nM. Also, the selectivity ratio in [3] came to 5400. In the data set on Cotton rat [9], this compound yielded an Efficacy of 3.6. For the same compound, the CC50 in the data set on HEp-2 came out at 75500 nM.
In the case of `CC(C)n1c(=O)n(Cc2nc3ccccc3n2CCc2noc(O)n2)c2ccccc21`, the Efficacy in the data set on Cotton rat [10] was determined as 2.1; with Mus musculus it was 2.55. The compound further registered an EC50 in [2] of 21 nM. Moreover, the selectivity ratio in [3] stood at 3540. This compound also registered a CC50 in the data set with HEp-2 of 75400 nM.
